Columns and labels:
3T3-L1 cells [1] = assay: Quantitative PCR of relative mRNA expression in cell culture samples; assay type: cell-based, Mouse; settings: for Gapdh expression / Hk2 expression / Pfkfb3 expression: 62.5 µM for 24 h
Description: Mouse 3T3-L1 preadipocytes were maintained in proliferation medium containing DMEM supplemented with 10% (v/v) heat inactivated NBCS and 1% (v/v) penicillin-streptomycin at 37 °C with 5% CO2, humidified atmosphere. Cells were seeded in T-75 flasks at a density of 25×10^4 cells/flask. Cultures never became completely confluent according to the manufacturer's instructions. They were passaged using trypsin-EDTA solution once they reached 70-80% confluency. For differentiation, 3T3-L1 cells were seeded and after 24 h (day 1), cell differentiation was induced by changing the medium to high glucose DMEM containing 10% (v/v) heat inactivated FBS, 1% penicillin-streptomycin, 10 µg/mL insulin, 0.25 µM Dexamethasone (GAP), 0.5 mM IBMX (=differentiation medium I). On day 3, the medium was changed to high glucose DMEM containing 10% FBS, 1% penicillin- streptomycin, and 10 µg/mL insulin (=differentiation medium II). Thereafter, medium was changed every other day switching between differentiation medium I and differentiation medium II until day 12 or 23, when adipocytes were harvested. Control group preadipocytes were seeded at a higher density and harvested after two days. Test compounds were administered either at the initiation of differentiation, or after 15 days of differentiation and with every medium change. To determine the effect on preadipocyte differentiation, cells were seeded and after 24 h they were treated with neorogioldiol. Neorogioldiol was maintained in the culture medium throughout cell differentiation period. To determine the effect of neorogioldiol on mature adipocytes, cells were seeded and induced to differentiate for 14 days, then on day 15 neorogioldiol was added to the differentiation medium for 24 h before cells were harvested. Each compound used was diluted in a 90% carbowax™ 400, 10% (v/v) absolute ethanol solution serving as a control solvent. The final concentration in culture was 0.09% (v/v) carbowax and 0.01% (v/v) ethanol. Compounds were used at the following concentrations: neorogioldiol (1) 62.5µM and neorogioltriol (2) 25µM.
(§1) Adipocytes and preadipocytes were harvested using the TRI Reagent®. RNA isolation was carried out according to the manufacturer's instructions. The purified RNA was quantified using the Nanodrop micro-volume spectrophotometer and 500 ng of each sample were used as a template for reverse transcription. cDNA synthesis was performed using the PrimeScriptTM RT reagent Kit (TaKaRa, RR037A) according to manufacturer's instructions. The cDNA produced by the above described procedure was diluted and used as a template for two-step quantitative PCR in a StepOnePlus™ Real-Time PCR System (Applied Biosystems™, 4376600) for a maximum of 40 cycles, as follows: start step 95 °C for 3 min, repeat steps: 95 °C for 15 s and 60 °C for 30 s. Amplification was performed using KAPA SYBR® FAST Universal qPCR kit (Kapa Biosystems, KK4618) according to manufacturer's instructions. Relative quantitative analysis was accomplished calculating fold-changes of gene expression as 2-(ΔΔCt), where ΔCt is (Ct (gene of interest) - Ct (housekeeping gene)). Ppib was used as internal control gene in 3T3L1 cells and in the fat fraction of mice abdominal fat, Rps9 was used as internal control gene in the stromal vascular fraction of mice abdominal fat and Actb was used as internal control gene in liver samples. Table 1. List of primers used for quantitative real-time PCR analysis.

3T3-L1 preadipocytes = assay: Seahorse XF cell metabolism analysis (extracellular acidification rate); assay type: cell-based, Mouse; settings: 62.5 µM for 24 h
Description: Seahorse XF Cell Energy Phenotype Test Kit and Seahorse XF Cell Mito Stress Test Kit were used to measure oxygen consumption rate and extracellular acidification rate on a Seahorse Bioscience XF Analyzer (Agilent Technologies). 3T3-L1 preadipocytes were seeded at 7.5×10^3 per well in growth medium in XF 96 Cell Culture Microplate (Agilent Technologies) two days prior to assay. 24 h prior to the assay, medium was changed and compound 1 was added at concentration of 62.5 µM. The day of the assay, cells were washed once and media was replaced with XF Base Medium (pH 7.4) supplemented with 1 mM pyruvate, 2 mM glutamine and 10 mM glucose. The plate was placed in a 37 °C incubator without CO2 for one hour prior to the assay. Cells were washed a second time right before starting the experiment. After measuring basal oxygen consumption rate and extracellular acidification rate, oligomycin (1.0 µM) and FCCP (1.0 µM) were introduced in real time to measure oxygen consumption rate and extracellular acidification rate under stressed condition. For the baseline extracellular acidification rate the third out of the three baseline measurements was used, while for the stressed condition, the highest measurement after the injections was used. The metabolic potential is calculated as the percentage of stressed extracellular acidification rate to baseline extracellular acidification rate.

[2] = Glucose tolerance test in high fat diet-fed mice; assay type: in vivo, C57BL/6 adult male mice
Description: (§2) All procedures were conducted in compliance with protocols approved by the Animal Care Committee of the University of Crete, School of Medicine (Facility number EL91-BIOexp-06), in conjunction with the Veterinary Department of the Region of Crete, Heraklion, Crete, Greece. C57BL/6 adult male mice were maintained in a 12 h day/night cycle and 21-23 °C conditions. Mice were provided with water and either normal fat diet, or high fat diet (60% energy from fat) ad libitum. All mice were weighed every 48 h.
(§3) Neorogioldiol was first dissolved in 90% carbowaxTM 400, 10% (v/v) absolute ethanol solution and then diluted 1:10 in water for injection. A dose of 0.25 mg neorogioldiol in a total volume of 200 µl was administered intraperitoneally every 48 h in mice in high fat + neorogioldiol group starting from day 1. 4-5 mice were used per group and each experiment was performed twice.
Mice were fasted for 16 h before receiving an intraperitoneal injection of 35% dextrose (100 µl / 35 gr). Blood glucose concentrations were measured in blood collected by venous bleeding from the tail vein immediately before the injections and after 30, 60 and 120 min.

[3] = tested on: cytochrome P450 genes (Cyp1a1, Cyp2b10, Cyp3a11, Cyp3a25); assay: Quantitative PCR of cytochrome P450 genes in liver RNA extracts; assay type: in vivo, C57BL/6 adult male mice; settings: 0.25 mg/mouse i.p. every 48 h for 35 days; vs high-fat diet mice
Description: as §1, §2, §3

3T3-L1 cells [4] = assay: Quantitative PCR of relative mRNA expression in cell culture samples; assay type: cell-based, Mouse; settings: mature adipocytes: differentiated 15 days, then 62.5 µM for 8 more days
[5] = reference [12]; cited from earlier work
[6] = cells differentiated in the presence of compound, 12 days, 1 at 62.5 µM, 2 at 25 µM
[7] = differentiation in presence of serial concentrations 62.5, 31.25, 15.625, 7.81 and 3.9 µM, dose-dependent
[8] = mature adipocytes: differentiated 15 days, then 62.5 µM for 8 more days

Question: For neorogioldiol, which Gapdh expression (3T3-L1 cells [1]; adipocytes) is on record?
Answer: Its Gapdh expression is “decreasing”.

Question: What about the Hk2 expression (3T3-L1 cells [1]; adipocytes) of the same substance?
Answer: Its Hk2 expression is “decreasing”.

Question: And the Pfkfb3 expression (3T3-L1 cells [1]; adipocytes)?
Answer: Its Pfkfb3 expression is “decreasing”.

Question: And the Adipoq expression levels (3T3-L1 cells [1]; [6])?
Answer: The Adipoq expression levels was “restricted the increase”.

Question: What about the “Dlkl mRNA expression” value (3T3-L1 cells [1]; [6]) of the same substance?
Answer: Its value is “diminished”.

Question: And the Lep expression levels (3T3-L1 cells [1]; [6])?
Answer: The Lep expression levels was “restricted the increase”.

Question: And the Slc2a4 expression levels (3T3-L1 cells [1]; [6])?
Answer: The Slc2a4 expression levels was “restricted the increase”.

Question: And the Lep levels (3T3-L1 cells [1]; [7])?
Answer: Its Lep levels is “restricted the increase”.

Question: And the Slc2a4 levels (3T3-L1 cells [1]; [7])?
Answer: The Slc2a4 levels was “restricted the increase”.

Question: And the Adipoq expression (3T3-L1 cells [1]; [8])?
Answer: Its Adipoq expression is “decreased the expression”.

Question: What about the Fabp4 expression (3T3-L1 cells [1]; [8]) of the same substance?
Answer: The Fabp4 expression was “decreased the expression”.

Question: And the Pparg expression (3T3-L1 cells [1]; [8])?
Answer: Its Pparg expression is “decreased the expression”.

Question: What about the Gapdh expression (3T3-L1 cells [1]; preadipocytes) of the same substance?
Answer: The Gapdh expression was “downregulated”.

Question: What about the Hk2 expression (3T3-L1 cells [1]; preadipocytes) of the same substance?
Answer: The Hk2 expression was “downregulated”.

Question: What about the Pfkfb3 expression (3T3-L1 cells [1]; preadipocytes) of the same substance?
Answer: Its Pfkfb3 expression is “downregulated”.

Question: What about the “basal levels of extracellular acidification rate” value (3T3-L1 preadipocytes) of the same substance?
Answer: Its value is “increasing basal levels”.

Question: And the “metabolic potential (stressed to baseline extracellular acidification rate)” value (3T3-L1 preadipocytes; after oligomycin and FCCP)?
Answer: The value was “decreased the metabolic potential”.

Question: What about the “glucose intolerance (glucose tolerance test)” value ([2]; day 16, 0.25 mg/mouse i.p. every 48 h) of the same substance?
Answer: Its value is “had not developed glucose intolerance”.

Question: What about the “glucose intolerance (glucose tolerance test)” value ([2]; day 34, 0.25 mg/mouse i.p. every 48 h) of the same substance?
Answer: The value was “became glucose intolerant”.

Question: What about the “Cyp1a1 expression in liver RNA extracts” value [3] of the same substance?
Answer: The value was “no difference”.

Question: And the “Cyp2b10 expression in liver RNA extracts” value [3]?
Answer: The value was “no difference”.

Question: And the “Cyp3a11 expression in liver RNA extracts” value [3]?
Answer: Its value is “no difference”.

Question: And the “Cyp3a25 expression in liver RNA extracts” value [3]?
Answer: The value was “no difference”.

Question: What about the Dlkl expression (3T3-L1 cells [4]) of the same substance?
Answer: Its Dlkl expression is “did not affect the expression”.

Question: What about the Lep expression (3T3-L1 cells [4]) of the same substance?
Answer: Its Lep expression is “decreased the expression”.

Question: And the Slc2a4 expression (3T3-L1 cells [4])?
Answer: Its Slc2a4 expression is “decreased the expression”.

Question: What about the anti-inflammatory activity [5] of the same substance?
Answer: Its anti-inflammatory activity is “potent anti-inflammatory activity”.
